Assay results reported in US9850283B2, “Macrocyclic inhibitors of the PD-1/PD-L1 and CD80(B7-1)/PD-L1 protein/protein interactions” (BRISTOL-MYERS SQUIBB COMPANY, priority 2013, dated 2017).
Positions of bridges follow the written chain, without caps; N, C: chain ends. Non-standard residues stand in square brackets, D forms with d. Residues, ends and D or L forms follow the SMILES beside them. ξ: configuration not given here. Bta = N[C@@H](Cc1csc2ccccc12)C(=O)O; Hyp = O=C(O)[C@@H]1C[C@@H](O)CN1; NMeNle = CCCC[C@H](NC)C(=O)O; NMeM = CN[C@@H](CCSC)C(=O)O; NMeA = CN[C@@H](C)C(=O)O; Dap = NC[C@H](N)C(=O)O; ξC = NC(CS)C(=O)O

Legend:
[1] = target: T1, LK35.2-hPD-L1 cells / PE-labeled PD-1-Ig (Homo sapiens, UniProt Q9NZQ7); assay: LK35.2-hPD-L1 cell binding high-content screening assay; assay type: cell-based; settings: cell binding assay, cell line not given; cluster symbol; read-out: CBA IC50 cluster
T1 construct: expressed in transfected cells; host or cells: LK35.2 mouse B cell line
T1 sequence (Q9NZQ7 19-290): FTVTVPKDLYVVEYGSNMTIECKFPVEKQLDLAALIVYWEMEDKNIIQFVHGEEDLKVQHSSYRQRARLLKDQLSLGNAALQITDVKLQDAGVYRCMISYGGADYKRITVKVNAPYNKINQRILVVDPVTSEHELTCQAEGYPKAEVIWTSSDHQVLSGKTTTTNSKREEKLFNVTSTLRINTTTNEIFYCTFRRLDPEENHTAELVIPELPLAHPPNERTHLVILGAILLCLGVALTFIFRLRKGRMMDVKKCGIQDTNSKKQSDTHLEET
Summary of the method: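 Using overnight-cultured LK35.2-hPD-L1 mouse B cells, compound was co-incubated with phycoerythrin-tagged human PD-1-Ig (final 1 nM) at 37 °C for one hour. Unbound label was removed by triple dPBS washing prior to high-content image acquisition and analysis.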

Human PD-L1/PD-1 = target: T2, Human PD-L1/PD-1 (Homo sapiens, UniProt Q9NZQ7); assay: HTRF PD-1-Ig/PD-L1-His binding assay (human PD-L1); settings: cluster symbol; read-out: HTRF IC50 cluster
T2 construct: made in house; host or cells: HEK293T
T2 sequence (Q9NZQ7 with tags, fused parts or gaps): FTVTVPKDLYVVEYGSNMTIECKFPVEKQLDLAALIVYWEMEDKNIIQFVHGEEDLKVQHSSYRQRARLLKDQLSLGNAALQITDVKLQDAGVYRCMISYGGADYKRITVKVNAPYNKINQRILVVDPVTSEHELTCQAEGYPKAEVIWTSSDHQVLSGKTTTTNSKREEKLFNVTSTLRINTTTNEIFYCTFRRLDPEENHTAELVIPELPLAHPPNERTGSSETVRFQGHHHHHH
Summary of the method: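 Readout: time-resolved FRET between Eu cryptate-labeled anti-Ig (1 nM final) and APC-labeled anti-His (20 nM final) antibodies. These detect interaction of Fc-fused PD-1 with His-tagged human PD-L1 in dPBS containing 0.1% BSA and 0.05% Tween-20.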

CCCC[C@H]1C(=O)N[C@@H](C)C(=O)NC(C(=O)NCC(N)=O)CSCC(=O)N[C@@H](Cc2ccc(O)cc2)C(=O)N(C)[C@@H](C)C(=O)N[C@@H](CC(N)=O)C(=O)N2CCC[C@H]2C(=O)N[C@@H](CN)C(=O)N[C@@H](CC(C)C)C(=O)N2CCC[C@H]2C(=O)N[C@@H](Cc2c[nH]c3ccccc23)C(=O)N[C@@H](CO)C(=O)N[C@@H](Cc2csc3ccccc23)C(=O)N(C)[C@@H](CCSC)C(=O)N1C (stereo partly drawn) [Example 9094] ({CH2CO}-Y[NMeA]NP[Dap]LPWS[Bta][NMeM][NMeNle]A[ξC]G-NH2; thioether N-14)
IC50 [1]: 4.78 to 72.9 nM
IC50 (Human PD-L1/PD-1): 0.385 to 6.74 nM

CCCC[C@H]1C(=O)N[C@@H](C)C(=O)NC(C(=O)NCC(N)=O)CSCC(=O)N[C@@H](Cc2ccc(O)cc2)C(=O)N(C)[C@@H](C)C(=O)N[C@@H](CC(N)=O)C(=O)N2CCC[C@H]2C(=O)N[C@@H](CN)C(=O)N[C@@H](CC(C)C)C(=O)N2C[C@H](O)C[C@H]2C(=O)N[C@@H](Cc2c[nH]c3ccccc23)C(=O)N[C@@H](CO)C(=O)N[C@@H](Cc2c[nH]c3ccccc23)C(=O)N(C)[C@@H](CCSC)C(=O)N1C (stereo partly drawn) [Example 9095]
IC50 [1]: 4.78 to 72.9 nM
IC50 (Human PD-L1/PD-1): 0.385 to 6.74 nM

CCCC[C@H]1C(=O)N[C@@H](C)C(=O)NC(C(=O)NCC(N)=O)CSCC(=O)N[C@@H](Cc2ccc(O)cc2)C(=O)N(C)[C@@H](C)C(=O)N[C@@H](CC(N)=O)C(=O)N2CCC[C@H]2C(=O)N[C@@H](CN)C(=O)N[C@@H](CC(C)C)C(=O)N2C[C@H](O)C[C@H]2C(=O)N[C@@H](Cc2c[nH]c3ccccc23)C(=O)N[C@@H](CO)C(=O)N[C@@H](Cc2csc3ccccc23)C(=O)N(C)[C@@H](CCSC)C(=O)N1C (stereo partly drawn) [Example 9096] ({CH2CO}-Y[NMeA]NP[Dap]L[Hyp]WS[Bta][NMeM][NMeNle]A[ξC]G-NH2; thioether N-14)
IC50 [1]: 0.158 to 4.71 nM
IC50 (Human PD-L1/PD-1): 0.385 to 6.74 nM

CCCC[C@H]1C(=O)N[C@@H](CCCNC(=N)N)C(=O)NC(C(=O)NCC(N)=O)CSCC(=O)N[C@@H](Cc2ccc(O)cc2)C(=O)N(C)[C@@H](C)C(=O)N[C@@H](CC(N)=O)C(=O)N2CCC[C@H]2C(=O)N[C@@H](CO)C(=O)N[C@@H](CC(C)C)C(=O)N2C[C@H](O)C[C@H]2C(=O)N[C@@H](Cc2c[nH]c3ccccc23)C(=O)N[C@@H](CO)C(=O)N[C@@H](Cc2csc3ccccc23)C(=O)N(C)[C@@H](CCSC)C(=O)N1C (stereo partly drawn) [Example 9099] ({CH2CO}-Y[NMeA]NPSL[Hyp]WS[Bta][NMeM][NMeNle]R[ξC]G-NH2; thioether N-14)
IC50 [1]: 0.158 to 4.71 nM
IC50 (Human PD-L1/PD-1): 0.385 to 6.74 nM

CCCC[C@H]1C(=O)N[C@@H](CCCNC(=N)N)C(=O)NC(C(=O)NCC(N)=O)CSCC(=O)N[C@@H](Cc2ccc(O)cc2)C(=O)N(C)[C@@H](C)C(=O)N[C@@H](CC(N)=O)C(=O)N2CCC[C@H]2C(=O)N[C@@H](CO)C(=O)N[C@@H](CC(C)C)C(=O)N2C[C@H](O)C[C@H]2C(=O)N[C@@H](Cc2c[nH]c3ccccc23)C(=O)N[C@@H](CO)C(=O)N[C@@H](Cc2c[nH]c3ccccc23)C(=O)N(C)[C@@H](CCSC)C(=O)N1C (stereo partly drawn) [Example 9100] ({CH2CO}-Y[NMeA]NPSL[Hyp]WSW[NMeM][NMeNle]R[ξC]G-NH2; thioether N-14)
IC50 [1]: 0.158 to 4.71 nM
IC50 (Human PD-L1/PD-1): 0.385 to 6.74 nM

CCCC[C@H]1C(=O)N(C)[C@@H](CCSC)C(=O)N[C@@H](CCCNC(=N)N)C(=O)NC(C(=O)NCC(N)=O)CSCC(=O)N[C@@H](Cc2ccc(O)cc2)C(=O)N(C)[C@@H](C)C(=O)N[C@@H](CC(N)=O)C(=O)N2CCC[C@H]2C(=O)N[C@@H](Cc2cnc[nH]2)C(=O)N[C@@H](CO)C(=O)N2CCC[C@H]2C(=O)N[C@@H](Cc2c[nH]c3ccccc23)C(=O)N[C@@H](CO)C(=O)N[C@@H](Cc2c[nH]c3ccccc23)C(=O)N1C (stereo partly drawn) [Example 9105] ({CH2CO}-Y[NMeA]NPHSPWSW[NMeNle][NMeM]R[ξC]G-NH2; thioether N-14)
IC50 [1]: 4.78 to 72.9 nM
IC50 (Human PD-L1/PD-1): 0.385 to 6.74 nM

CCCC[C@H]1C(=O)N(C)[C@@H](CCSC)C(=O)N[C@@H](CCCNC(=N)N)C(=O)NC(C(=O)NCC(N)=O)CSCC(=O)N[C@@H](Cc2ccc(O)cc2)C(=O)N(C)[C@@H](C)C(=O)N[C@@H](CC(N)=O)C(=O)N2CCC[C@H]2C(=O)N[C@@H](Cc2cnc[nH]2)C(=O)N[C@@H](CO)C(=O)N2CCC[C@H]2C(=O)N[C@@H](Cc2c[nH]c3ccccc23)C(=O)N[C@@H](CO)C(=O)N[C@@H](Cc2csc3ccccc23)C(=O)N1C (stereo partly drawn) [Example 9106] ({CH2CO}-Y[NMeA]NPHSPWS[Bta][NMeNle][NMeM]R[ξC]G-NH2; thioether N-14)
IC50 [1]: 4.78 to 72.9 nM
IC50 (Human PD-L1/PD-1): 0.385 to 6.74 nM

CCCC[C@H]1C(=O)N(C)[C@@H](CCSC)C(=O)N[C@@H](CCCNC(=N)N)C(=O)NC(C(=O)NCC(N)=O)CSCC(=O)N[C@@H](Cc2ccc(O)cc2)C(=O)N(C)[C@@H](C)C(=O)N[C@@H](CC(N)=O)C(=O)N2CCC[C@H]2C(=O)N[C@@H](Cc2cnc[nH]2)C(=O)N[C@@H](CO)C(=O)N2C[C@H](O)C[C@H]2C(=O)N[C@@H](Cc2c[nH]c3ccccc23)C(=O)N[C@@H](CO)C(=O)N[C@@H](Cc2c[nH]c3ccccc23)C(=O)N1C (stereo partly drawn) [Example 9107] ({CH2CO}-Y[NMeA]NPHS[Hyp]WSW[NMeNle][NMeM]R[ξC]G-NH2; thioether N-14)
IC50 [1]: 4.78 to 72.9 nM
IC50 (Human PD-L1/PD-1): 6.76 to 30.3 nM

CCCC[C@H]1C(=O)N(C)[C@@H](CCSC)C(=O)N[C@@H](CCCNC(=N)N)C(=O)NC(C(=O)NCC(N)=O)CSCC(=O)N[C@@H](Cc2ccc(O)cc2)C(=O)N(C)[C@@H](C)C(=O)N[C@@H](CC(N)=O)C(=O)N2CCC[C@H]2C(=O)N[C@@H](Cc2cnc[nH]2)C(=O)N[C@@H](CO)C(=O)N2C[C@H](O)C[C@H]2C(=O)N[C@@H](Cc2c[nH]c3ccccc23)C(=O)N[C@@H](CO)C(=O)N[C@@H](Cc2csc3ccccc23)C(=O)N1C (stereo partly drawn) [Example 9108] ({CH2CO}-Y[NMeA]NPHS[Hyp]WS[Bta][NMeNle][NMeM]R[ξC]G-NH2; thioether N-14)
IC50 [1]: 0.158 to 4.71 nM
IC50 (Human PD-L1/PD-1): 0.385 to 6.74 nM

CCCC[C@H]1C(=O)N[C@@H](CCCNC(=N)N)C(=O)NC(C(=O)NCC(N)=O)CSCC(=O)N[C@@H](Cc2ccc(O)cc2)C(=O)N(C)[C@@H](C)C(=O)N[C@@H](CC(N)=O)C(=O)N2CCC[C@H]2C(=O)N[C@@H](Cc2cnc[nH]2)C(=O)N[C@@H](CO)C(=O)N2CCC[C@H]2C(=O)N[C@@H](Cc2c[nH]c3ccccc23)C(=O)N[C@@H](CO)C(=O)N[C@@H](Cc2c[nH]c3ccccc23)C(=O)N(C)[C@@H](CCSC)C(=O)N1C (stereo partly drawn) [Example 9109] ({CH2CO}-Y[NMeA]NPHSPWSW[NMeM][NMeNle]R[ξC]G-NH2; thioether N-14)
IC50 [1]: 4.78 to 72.9 nM
IC50 (Human PD-L1/PD-1): 6.76 to 30.3 nM

CCCC[C@H]1C(=O)N(C)[C@@H](C)C(=O)N[C@@H](CCCNC(=N)N)C(=O)NC(C(=O)NCC(N)=O)CSCC(=O)N[C@@H](Cc2ccc(O)cc2)C(=O)N(C)[C@@H](C)C(=O)N[C@@H](CC(N)=O)C(=O)N2CCC[C@H]2C(=O)N[C@@H](CO)C(=O)N[C@@H](CC(C)C)C(=O)N2CCC[C@H]2C(=O)N[C@@H](Cc2c[nH]c3ccccc23)C(=O)N[C@@H](CO)C(=O)N[C@@H](Cc2c[nH]c3ccccc23)C(=O)N1C (stereo partly drawn) [Example 9110] ({CH2CO}-Y[NMeA]NPSLPWSW[NMeNle][NMeA]R[ξC]G-NH2; thioether N-14)
IC50 [1]: 4.78 to 72.9 nM
IC50 (Human PD-L1/PD-1): 0.385 to 6.74 nM

CCCC[C@H]1C(=O)N(C)[C@@H](C)C(=O)N[C@@H](CCCNC(=N)N)C(=O)NC(C(=O)NCC(N)=O)CSCC(=O)N[C@@H](Cc2ccc(O)cc2)C(=O)N(C)[C@@H](C)C(=O)N[C@@H](CC(N)=O)C(=O)N2CCC[C@H]2C(=O)N[C@@H](CO)C(=O)N[C@@H](CC(C)C)C(=O)N2CCC[C@H]2C(=O)N[C@@H](Cc2c[nH]c3ccccc23)C(=O)N[C@@H](CO)C(=O)N[C@@H](Cc2csc3ccccc23)C(=O)N1C (stereo partly drawn) [Example 9111] ({CH2CO}-Y[NMeA]NPSLPWS[Bta][NMeNle][NMeA]R[ξC]G-NH2; thioether N-14)
IC50 [1]: 4.78 to 72.9 nM
IC50 (Human PD-L1/PD-1): 0.385 to 6.74 nM

CCCC[C@H]1C(=O)N[C@@H](CCCNC(=N)N)C(=O)NC(C(=O)NCC(N)=O)CSCC(=O)N[C@@H](Cc2ccc(O)cc2)C(=O)N(C)[C@@H](C)C(=O)N[C@@H](CC(N)=O)C(=O)N2CCC[C@H]2C(=O)N[C@@H](Cc2cnc[nH]2)C(=O)N[C@@H](CO)C(=O)N2CCC[C@H]2C(=O)N[C@@H](Cc2c[nH]c3ccccc23)C(=O)N[C@@H](CO)C(=O)N[C@@H](Cc2csc3ccccc23)C(=O)N(C)[C@@H](CCSC)C(=O)N1C (stereo partly drawn) [Example 9112] ({CH2CO}-Y[NMeA]NPHSPWS[Bta][NMeM][NMeNle]R[ξC]G-NH2; thioether N-14)
IC50 [1]: 4.78 to 72.9 nM
IC50 (Human PD-L1/PD-1): 0.385 to 6.74 nM

CCCC[C@H]1C(=O)N[C@@H](CCCNC(=N)N)C(=O)NC(C(=O)NCC(N)=O)CSCC(=O)N[C@@H](Cc2ccc(O)cc2)C(=O)N(C)[C@@H](C)C(=O)N[C@@H](CC(N)=O)C(=O)N2CCC[C@H]2C(=O)N[C@@H](Cc2cnc[nH]2)C(=O)N[C@@H](CO)C(=O)N2C[C@H](O)C[C@H]2C(=O)N[C@@H](Cc2c[nH]c3ccccc23)C(=O)N[C@@H](CO)C(=O)N[C@@H](Cc2c[nH]c3ccccc23)C(=O)N(C)[C@@H](CCSC)C(=O)N1C (stereo partly drawn) [Example 9113] ({CH2CO}-Y[NMeA]NPHS[Hyp]WSW[NMeM][NMeNle]R[ξC]G-NH2; thioether N-14)
IC50 [1]: 4.78 to 72.9 nM
IC50 (Human PD-L1/PD-1): 6.76 to 30.3 nM

CCCC[C@H]1C(=O)N[C@@H](CCCNC(=N)N)C(=O)NC(C(=O)NCC(N)=O)CSCC(=O)N[C@@H](Cc2ccc(O)cc2)C(=O)N(C)[C@@H](C)C(=O)N[C@@H](CC(N)=O)C(=O)N2CCC[C@H]2C(=O)N[C@@H](Cc2cnc[nH]2)C(=O)N[C@@H](CO)C(=O)N2C[C@H](O)C[C@H]2C(=O)N[C@@H](Cc2c[nH]c3ccccc23)C(=O)N[C@@H](CO)C(=O)N[C@@H](Cc2csc3ccccc23)C(=O)N(C)[C@@H](CCSC)C(=O)N1C (stereo partly drawn) [Example 9114] ({CH2CO}-Y[NMeA]NPHS[Hyp]WS[Bta][NMeM][NMeNle]R[ξC]G-NH2; thioether N-14)
IC50 [1]: 4.78 to 72.9 nM
IC50 (Human PD-L1/PD-1): 6.76 to 30.3 nM
